biological target: Recombinant human KIF18A (1-467His-tagged) protein (Homo sapiens (Human), UniProt Q8NI77); assay: KIF18A enzyme assay (microtubule-stimulated ATPase activity, ADP-Glo); type: biochemical; conditions: 30 nM KIF18A, ATP 75 μM, read-out: inhibitory activity against KIF18A IC50
In short: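 Baculovirus-expressed human KIF18A (1-467, His-tagged; 30 nM) preincubated 15 min at room temperature with compound (22-point 2-fold series) in pH 7.5 Tris buffer containing 30 μg/mL pig microtubules and 1 μM paclitaxel.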

Chain of Recombinant human KIF18A (1-467His-tagged) protein (Q8NI77 1-467): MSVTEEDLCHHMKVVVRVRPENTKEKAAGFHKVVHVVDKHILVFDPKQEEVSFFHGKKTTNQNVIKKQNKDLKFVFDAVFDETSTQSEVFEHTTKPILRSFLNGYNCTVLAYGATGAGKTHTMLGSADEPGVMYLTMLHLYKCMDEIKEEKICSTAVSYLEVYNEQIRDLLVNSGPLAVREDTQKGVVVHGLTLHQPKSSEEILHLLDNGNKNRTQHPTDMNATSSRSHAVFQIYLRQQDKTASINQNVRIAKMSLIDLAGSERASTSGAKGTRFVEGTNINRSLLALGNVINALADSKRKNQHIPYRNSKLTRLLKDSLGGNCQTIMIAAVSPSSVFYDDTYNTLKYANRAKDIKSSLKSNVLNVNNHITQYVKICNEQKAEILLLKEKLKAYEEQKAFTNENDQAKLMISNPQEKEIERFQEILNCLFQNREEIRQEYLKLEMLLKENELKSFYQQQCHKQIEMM
Chain of Recombinant human KIF18A (1-467His-tagged) protein (P02550 whole entry partner): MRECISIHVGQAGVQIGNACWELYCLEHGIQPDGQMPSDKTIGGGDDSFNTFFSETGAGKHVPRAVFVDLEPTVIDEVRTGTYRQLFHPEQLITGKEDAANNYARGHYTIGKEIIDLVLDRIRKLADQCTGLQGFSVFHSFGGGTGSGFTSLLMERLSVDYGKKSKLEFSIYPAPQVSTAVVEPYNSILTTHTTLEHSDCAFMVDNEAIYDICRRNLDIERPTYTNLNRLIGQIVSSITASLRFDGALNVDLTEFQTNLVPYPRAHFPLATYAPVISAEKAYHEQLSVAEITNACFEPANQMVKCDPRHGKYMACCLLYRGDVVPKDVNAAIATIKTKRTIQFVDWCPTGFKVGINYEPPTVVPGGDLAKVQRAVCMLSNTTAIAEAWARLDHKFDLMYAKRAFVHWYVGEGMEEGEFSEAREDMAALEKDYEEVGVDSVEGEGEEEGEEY
Chain of Recombinant human KIF18A (1-467His-tagged) protein (P02554 whole entry partner): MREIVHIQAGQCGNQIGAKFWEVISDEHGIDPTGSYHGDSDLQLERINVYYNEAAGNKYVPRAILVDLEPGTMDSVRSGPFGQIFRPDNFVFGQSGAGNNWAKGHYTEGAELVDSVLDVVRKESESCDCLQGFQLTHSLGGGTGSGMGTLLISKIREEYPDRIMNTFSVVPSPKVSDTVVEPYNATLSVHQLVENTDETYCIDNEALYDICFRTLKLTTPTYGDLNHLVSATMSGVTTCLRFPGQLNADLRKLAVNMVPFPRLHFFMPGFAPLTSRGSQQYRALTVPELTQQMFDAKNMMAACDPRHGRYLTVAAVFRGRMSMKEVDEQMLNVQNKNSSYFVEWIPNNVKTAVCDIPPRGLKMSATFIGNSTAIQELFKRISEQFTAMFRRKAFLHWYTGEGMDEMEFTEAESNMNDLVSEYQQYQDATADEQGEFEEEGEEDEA

IC50, ≤ 100 nM:
CC(C)(CO)Nc1cc(NC(=O)c2ccc(S(=O)(=O)NCCO)cc2N2CCC3(CC2)CC3)cc2ccoc12 [Compound 155]
O=C(Nc1cc(N2CCOCC2)c2occc2c1)c1ccc(S(=O)(=O)NCCO)cc1N1CCC2(CC1)CC2 [Compound 156]
C[C@@H](CO)NS(=O)(=O)c1ccc(C(=O)Nc2cc(N3CCC(F)(F)CC3)c3occc3c2)c(N2CCC3(CC2)CC3)c1 [Compound 157]
C[C@H](CO)NS(=O)(=O)c1ccc(C(=O)Nc2cc(N3CCC(F)(F)CC3)c3occc3c2)c(N2CCC3(CC2)CC3)c1 [Compound 158]
C[C@@H]1CN(c2cc(NC(=O)c3ccc(S(=O)(=O)N[C@@H](C)CO)cc3N3CCC4(CC3)CC4)cc3ccoc23)CCO1 [Compound 159]
C[C@H](CO)NS(=O)(=O)c1ccc(C(=O)Nc2cc(N3CCO[C@H](C)C3)c3occc3c2)c(N2CCC3(CC2)CC3)c1 [Compound 160]
O=C(Nc1ccc(NS(=O)(=O)CCO)cc1N1CCC2(CC1)CC2)c1cc(N2CCC(F)(F)CC2)c2occc2c1 [Compound 161]
C[C@@H]1CN(c2cc(C(=O)Nc3ccc(NS(=O)(=O)CCO)cc3N3CCC4(CC3)CC4)cc3ccoc23)CCO1 [Compound 162]
C[C@H]1CN(c2cc(C(=O)Nc3ccc(NS(=O)(=O)CCO)cc3N3CCC4(CC3)CC4)cc3ccoc23)CCO1 [Compound 163]
O=C(Nc1ccc(NS(=O)(=O)CCO)cc1N1CCC2(CC1)CC2)c1cc(N2CC(F)(F)C2)c2occc2c1 [Compound 164]
O=C(Nc1ccc(NS(=O)(=O)CCO)cc1N1CCC2(CC1)CC2)c1cc(OCCC(F)(F)F)c2occc2c1 [Compound 165]
O=C(Nc1ccc(NS(=O)(=O)CCO)cc1N1CCC2(CC1)CC2)c1cc(N2CCC3(CC3)C2)c2occc2c1 [Compound 166]
O=C(Nc1ccc(NS(=O)(=O)CCO)cc1N1CCC2(CC1)CC2)c1cc(OC2CCC2)c2occc2c1 [Compound 167]
CC1(F)CCN(c2cc(C(=O)Nc3ccc(NS(=O)(=O)CCO)cc3N3CCC4(CC3)CC4)cc3ccoc23)C1 (stereo not shown) [Compound 168]
O=C(Nc1ccc(NS(=O)(=O)CCO)cc1N1CCC2(CC1)CC2)c1cc(N2CCC(F)CC2)c2occc2c1 [Compound 169]
O=C(Nc1ccc(NS(=O)(=O)CCO)cc1N1CCC2(CC1)CC2)c1cc(N2CC3CC3C2)c2occc2c1 (stereo not shown) [Compound 170]
CC(C)(CO)Nc1cc(C(=O)Nc2ccc(NS(=O)(=O)CCO)cc2N2CCC3(CC2)CC3)cc2ccoc12 [Compound 171]
O=C(Nc1ccc(NS(=O)(=O)CCO)cc1N1CCC2(CC1)CC2)c1cc(N2CCOCC2)c2occc2c1 [Compound 172]
C[C@@H](CO)S(=O)(=O)Nc1ccc(NC(=O)c2cc(N3CCC(F)(F)CC3)c3occc3c2)c(N2CCC3(CC2)CC3)c1 [Compound 173]
C[C@H](CO)S(=O)(=O)Nc1ccc(NC(=O)c2cc(N3CCC(F)(F)CC3)c3occc3c2)c(N2CCC3(CC2)CC3)c1 [Compound 174]
C[C@@H]1CN(c2cc(C(=O)Nc3ccc(NS(=O)(=O)[C@@H](C)CO)cc3N3CCC4(CC3)CC4)cc3ccoc23)CCO1 [Compound 175]
C[C@@H]1CN(c2cc(C(=O)Nc3ccc(NS(=O)(=O)[C@H](C)CO)cc3N3CCC4(CC3)CC4)cc3ccoc23)CCO1 [Compound 176]
O=C(Nc1ccc(S(=O)(=O)NCCO)cc1N1CCC2(CC1)CC2)c1cc(N2CCC(F)(F)CC2)c2occc2c1 [Compound 177]
C[C@@H]1CN(c2cc(C(=O)Nc3ccc(S(=O)(=O)NCCO)cc3N3CCC4(CC3)CC4)cc3ccoc23)CCO1 [Compound 178]
C[C@H]1CN(c2cc(C(=O)Nc3ccc(S(=O)(=O)NCCO)cc3N3CCC4(CC3)CC4)cc3ccoc23)CCO1 [Compound 179]
O=C(Nc1ccc(S(=O)(=O)NCCO)cc1N1CCC2(CC1)CC2)c1cc(N2CC(F)(F)C2)c2occc2c1 [Compound 180]
O=C(Nc1ccc(S(=O)(=O)NCCO)cc1N1CCC2(CC1)CC2)c1cc(OCCC(F)(F)F)c2occc2c1 [Compound 181]
O=C(Nc1ccc(S(=O)(=O)NCCO)cc1N1CCC2(CC1)CC2)c1cc(N2CCC3(CC3)C2)c2occc2c1 [Compound 182]
O=C(Nc1ccc(S(=O)(=O)NCCO)cc1N1CCC2(CC1)CC2)c1cc(OC2CCC2)c2occc2c1 [Compound 183]
CC1(F)CCN(c2cc(C(=O)Nc3ccc(S(=O)(=O)NCCO)cc3N3CCC4(CC3)CC4)cc3ccoc23)C1 (stereo not shown) [Compound 184]
O=C(Nc1ccc(S(=O)(=O)NCCO)cc1N1CCC2(CC1)CC2)c1cc(N2CCC(F)CC2)c2occc2c1 [Compound 185]
O=C(Nc1ccc(S(=O)(=O)NCCO)cc1N1CCC2(CC1)CC2)c1cc(N2CC3CC3C2)c2occc2c1 (stereo not shown) [Compound 186]
CC(C)(CO)Nc1cc(C(=O)Nc2ccc(S(=O)(=O)NCCO)cc2N2CCC3(CC2)CC3)cc2ccoc12 [Compound 187]
O=C(Nc1ccc(S(=O)(=O)NCCO)cc1N1CCC2(CC1)CC2)c1cc(N2CCOCC2)c2occc2c1 [Compound 188]
C[C@@H](CO)NS(=O)(=O)c1ccc(NC(=O)c2cc(N3CCC(F)(F)CC3)c3occc3c2)c(N2CCC3(CC2)CC3)c1 [Compound 189]
C[C@H](CO)NS(=O)(=O)c1ccc(NC(=O)c2cc(N3CCC(F)(F)CC3)c3occc3c2)c(N2CCC3(CC2)CC3)c1 [Compound 190]
C[C@@H]1CN(c2cc(C(=O)Nc3ccc(S(=O)(=O)N[C@@H](C)CO)cc3N3CCC4(CC3)CC4)cc3ccoc23)CCO1 [Compound 191]
C[C@H](CO)NS(=O)(=O)c1ccc(NC(=O)c2cc(N3CCO[C@H](C)C3)c3occc3c2)c(N2CCC3(CC2)CC3)c1 [Compound 192]
O=C(Nc1cc2ccoc2c(N2CCC(F)(F)CC2)n1)c1ccc(NS(=O)(=O)CCO)cc1N1CCC2(CC1)CC2 [Compound 193]
C[C@@H]1CN(c2nc(NC(=O)c3ccc(NS(=O)(=O)CCO)cc3N3CCC4(CC3)CC4)cc3ccoc23)CCO1 [Compound 194]
C[C@H]1CN(c2nc(NC(=O)c3ccc(NS(=O)(=O)CCO)cc3N3CCC4(CC3)CC4)cc3ccoc23)CCO1 [Compound 195]
O=C(Nc1cc2ccoc2c(N2CC(F)(F)C2)n1)c1ccc(NS(=O)(=O)CCO)cc1N1CCC2(CC1)CC2 [Compound 196]
O=C(Nc1cc2ccoc2c(OCCC(F)(F)F)n1)c1ccc(NS(=O)(=O)CCO)cc1N1CCC2(CC1)CC2 [Compound 197]
O=C(Nc1cc2ccoc2c(N2CCC3(CC3)C2)n1)c1ccc(NS(=O)(=O)CCO)cc1N1CCC2(CC1)CC2 [Compound 198]
O=C(Nc1cc2ccoc2c(OC2CCC2)n1)c1ccc(NS(=O)(=O)CCO)cc1N1CCC2(CC1)CC2 [Compound 199]
CC1(F)CCN(c2nc(NC(=O)c3ccc(NS(=O)(=O)CCO)cc3N3CCC4(CC3)CC4)cc3ccoc23)C1 (stereo not shown) [Compound 200]
O=C(Nc1cc2ccoc2c(N2CCC(F)CC2)n1)c1ccc(NS(=O)(=O)CCO)cc1N1CCC2(CC1)CC2 [Compound 201]
O=C(Nc1cc2ccoc2c(N2CC3CC3C2)n1)c1ccc(NS(=O)(=O)CCO)cc1N1CCC2(CC1)CC2 (stereo not shown) [Compound 202]
CC(C)(CO)Nc1nc(NC(=O)c2ccc(NS(=O)(=O)CCO)cc2N2CCC3(CC2)CC3)cc2ccoc12 [Compound 203]
O=C(Nc1cc2ccoc2c(N2CCOCC2)n1)c1ccc(NS(=O)(=O)CCO)cc1N1CCC2(CC1)CC2 [Compound 204]
C[C@@H](CO)S(=O)(=O)Nc1ccc(C(=O)Nc2cc3ccoc3c(N3CCC(F)(F)CC3)n2)c(N2CCC3(CC2)CC3)c1 [Compound 205]
C[C@H](CO)S(=O)(=O)Nc1ccc(C(=O)Nc2cc3ccoc3c(N3CCC(F)(F)CC3)n2)c(N2CCC3(CC2)CC3)c1 [Compound 206]
C[C@@H]1CN(c2nc(NC(=O)c3ccc(NS(=O)(=O)[C@@H](C)CO)cc3N3CCC4(CC3)CC4)cc3ccoc23)CCO1 [Compound 207]
C[C@@H]1CN(c2nc(NC(=O)c3ccc(NS(=O)(=O)[C@H](C)CO)cc3N3CCC4(CC3)CC4)cc3ccoc23)CCO1 [Compound 208]
O=C(Nc1cc2ccoc2c(N2CCC(F)(F)CC2)n1)c1ccc(S(=O)(=O)NCCO)cc1N1CCC2(CC1)CC2 [Compound 209]
C[C@@H]1CN(c2nc(NC(=O)c3ccc(S(=O)(=O)NCCO)cc3N3CCC4(CC3)CC4)cc3ccoc23)CCO1 [Compound 210]
C[C@H]1CN(c2nc(NC(=O)c3ccc(S(=O)(=O)NCCO)cc3N3CCC4(CC3)CC4)cc3ccoc23)CCO1 [Compound 211]
O=C(Nc1cc2ccoc2c(N2CC(F)(F)C2)n1)c1ccc(S(=O)(=O)NCCO)cc1N1CCC2(CC1)CC2 [Compound 212]
O=C(Nc1cc2ccoc2c(N2CCC3(CC3)C2)n1)c1ccc(S(=O)(=O)NCCO)cc1N1CCC2(CC1)CC2 [Compound 214]
O=C(Nc1cc2ccoc2c(OC2CCC2)n1)c1ccc(S(=O)(=O)NCCO)cc1N1CCC2(CC1)CC2 [Compound 215]
CC1(F)CCN(c2nc(NC(=O)c3ccc(S(=O)(=O)NCCO)cc3N3CCC4(CC3)CC4)cc3ccoc23)C1 (stereo not shown) [Compound 216]
O=C(Nc1cc2ccoc2c(N2CCC(F)CC2)n1)c1ccc(S(=O)(=O)NCCO)cc1N1CCC2(CC1)CC2 [Compound 217]
CC(C)(CO)Nc1nc(NC(=O)c2ccc(S(=O)(=O)NCCO)cc2N2CCC3(CC2)CC3)cc2ccoc12 [Compound 219]
O=C(Nc1cc2ccoc2c(N2CCOCC2)n1)c1ccc(S(=O)(=O)NCCO)cc1N1CCC2(CC1)CC2 [Compound 220]

Source: patent US20250197382A1, “KIF18A INHIBITOR” (WIGEN BIOMEDICINE TECHNOLOGY (SHANGHAI) CO., LTD., priority 2022, published 2025)
